Results on three molecules are retold here after patent US4758577A, “4-(5H-dibenzo[a,d]cyclohepten-5-yl)piperidine compounds for treating cardiovascular disorders” (Merck & Co., Inc., priority 1984, dated 1988).

The test system of the experiment is vascular smooth muscle. Nature of the experiment: inhibition of calcium induced contraction of tracheal smooth muscle or vascular tissue (segments of vascular smooth muscle in a tissue bath, depolarized, 0.1 mM calcium chloride re-added). It counts as cell-based, male Sprague-Dawley rats. Conditions: Rattus norvegicus; 10^-7 M; second contraction vs initial contraction. The protocol:
The property may be observed in a test in which segments of vascular smooth muscle obtained from male Sprague-Dawley rats are suspended in physiological salt solution in a tissue bath instrumented for recording contractions. After the tissue has been equilibrated, washed in calcium-free physiological salt solution and depolarized, 0.1 mM calcium chloride is re-added to induce contraction. After the contraction has reached a plateau, tissues are washed and a test compound or vehicle is added to determine the effect on a second contraction achieved by the above cyclic protocol. From measuring the initial contraction as well as the second contraction in the presence of the first compound, the extent of inhibition may be calculated.
What is called inhibition is the drop in the measured response relative to a control, in per cent. `COc1cc(C=CCN2CCC(C3c4ccccc4C=Cc4ccccc43)CC2)cc(OC)c1OC` [4-(5H-Dibenzo[a,d]cyclohepten-5-yl)-1-(3-(3,4,5-trimethoxyphenyl)prop-2-en-1-yl)piperidine]: the inhibition at 0.1 µM is 68%.
Turning to `CN(C)c1ccc(CN2CCC(C3c4ccccc4C=Cc4ccccc43)CC2)cc1` [4-(5H-Dibenzo[a,d]cyclohepten-5-yl)-1-(4-dimethylaminobenzyl)piperidine], the inhibition at 0.1 µM was 69%.
With `C(=Cc1ccccc1)CN1CCC(C2c3ccccc3C=Cc3ccccc32)CC1` [4-(5H-Dibenzo[a,d]cyclohepten-5-yl)-1-cinnamylpiperidine], the inhibition at 0.1 µM amounted to 70%.
